Source: patent US9102669B2, “Substituted piperidinyl-pyridazinyl derivatives useful as SCD 1 inhibitors” (Janssen Pharmaceutica NV, priority 2011, dated 2015)
“And” between values parts separate entries of the source, which are not always exact repeats. Identical values can stand only once. Like-named read-outs stand apart in the source and are kept apart here.

Experiments:
SCD1 [1] = molecular target: T1, SCD1 (Homo sapiens (Human), UniProt O00767); assay: SCD1 14C-palmitate assay in A431 cells; format: cell-based; settings: read-out: A431 cells 14C-PA IC50
Protocol: Human epithelial carcinoma A431 cells were seeded at 400,000 cells per well in 48-well tissue culture plate and treated with 2 cycles of fasting in low glucose medium (DMEM, Cellgro#10-014-CV, 1 g/L glucose, 2% Charcoal Filtered FBS) for 24 hours; and re-feeding with high glucose medium for 24 hours (DMEM, Cellgro#10-013-CM, 4.5 g/L glucose, 10% Charcoal Filtered FBS and 0.05 mg/mL Lilly Humulin R, Cat.#, HI-210). Prior to running the assay, the cells were washed twice with high glucose medium (400 μL), followed by addition of 250 μL assay buffer (DMEM, 4.5 g/L glucose, 0.05 mg/mL Human Insulin, 0.1% Fatty Acid Free BSA) to each well. Then, 100 μL of assay buffer containing 20 μM Palmitic Acid, 0.05 μCi ^14C Palmitic Acid (Perkin Elmer, NEC075H) and test compound (at selected concentration) was added to each well. The cells were then Incubated at 37° C. and 5% CO2 tissue culture incubator for 4 hours, followed by extensive washes with pre-chilled PBS. The cell plates were then frozen at −20° C. overnight. After thawing out the plates, 100 μL of 1N KOH was added to each well and the plates were incubated at 37° C. for 30 mins. Cell lysates were transferred to 1 mL Eppendorf tubes and incubated at 95° C. for 1 hour, followed by addition of 10 μL formic acid and 220 μL acetonitrile. The tubes were then centrifuged at 12,000 rpm and the supernatant dried under N2 for 2-3 hours. Dried extract was re-suspended in 60 μL hexane and loaded onto TLC plates (pre-coated with 10% AgNO3 in acetonitrile). The TLC plates were placed into glass running chamber containing 200 mL running solution (100 mL running solution: 92.5 mL chloroform, 6 mL methanol, 750 μL acetic acid, 750 μL dH2O). After running, the TLC plates were air dried and scanned on Bioscan AR-2000 for quantification of ^14C-palmitioleate and ^14C-palmitate peaks. Area under the curve of the peaks were used to calculate product/substrate ratio, an index of SCD1 activity.

SCD1 [2] = molecular target: SCD1 (Rattus norvegicus (Rat), UniProt P07308); assay: SCD1 enzymatic assay in rat liver microsomes (RLM); format: biochemical; settings: for inhibition at 1 µM: read-out: % Inh.@ 1 μM
Summary of the method: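 Microsomes from livers of Sprague Dawley rats after fast/fat-free re-feeding cycles (10 μg per reaction) were incubated 2 h at room temperature with 20 μM stearoyl-CoA plus ^3H-stearoyl-CoA (2 μCi/mL), ATP, CoA, NADH and glutathione in 0.1 M K-phosphate, with compound. Reactions were acid-stopped and charcoal-treated; radioactivity was counted and fitted to a sigmoidal dose-response curve.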

SCD1 [3] = molecular target: T1, SCD1; assay: SCD1 13C-palmitic acid assay in A431 cells; format: cell-based; settings: read-out: A431 cells 13C-PA IC50
Summary of the method: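 A431 cells with 0.05 mg/mL human insulin in 0.1% fatty-acid-free BSA assay medium; 4 h incubation at 37 °C before KOH saponification with D4-palmitate internal standard.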

[4] = 10-day diet-induced obese C57bl/6 mice study, body weight change; format: in vivo, mouse; design: unit not given here; settings: DIO C57BL/6J mice, oral 30 mg/kg once a day, after 10 days of treatment
Protocol: Male DIO C57BL/6J mice from Taconic were maintained on high fat diet D12492 containing 60% kCal of mostly saturated fats (Research Diets Inc.) for 4 week from 6-week old. Test compounds were prepared in 0.5% hydroxypropyl methyl cellulose for oral dosing at 30 mg/kg once a day. After 10-days of treatment, body weight change was recorded.
Representative compounds of the present invention were tested according to the procedure as described above, with results as listed in Table 7, below. In the results presented below, * indicates a calculated p value <0.05 vs. vehicle-treated group.

[5] = 1 μM test compound, rat liver microsomes

SCD1 (Rattus norvegicus (Rat), UniProt P07308), sequence (P07308 whole entry): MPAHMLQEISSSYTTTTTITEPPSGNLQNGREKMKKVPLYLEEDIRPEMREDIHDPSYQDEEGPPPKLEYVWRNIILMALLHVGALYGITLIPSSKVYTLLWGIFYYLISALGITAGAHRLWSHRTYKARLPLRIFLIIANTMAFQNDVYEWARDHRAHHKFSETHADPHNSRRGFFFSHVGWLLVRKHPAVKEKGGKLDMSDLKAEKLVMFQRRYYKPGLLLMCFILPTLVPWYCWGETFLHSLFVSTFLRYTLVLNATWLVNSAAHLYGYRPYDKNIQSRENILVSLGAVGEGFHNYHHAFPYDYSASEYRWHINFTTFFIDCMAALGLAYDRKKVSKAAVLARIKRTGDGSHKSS
T1 sequence (O00767 whole entry): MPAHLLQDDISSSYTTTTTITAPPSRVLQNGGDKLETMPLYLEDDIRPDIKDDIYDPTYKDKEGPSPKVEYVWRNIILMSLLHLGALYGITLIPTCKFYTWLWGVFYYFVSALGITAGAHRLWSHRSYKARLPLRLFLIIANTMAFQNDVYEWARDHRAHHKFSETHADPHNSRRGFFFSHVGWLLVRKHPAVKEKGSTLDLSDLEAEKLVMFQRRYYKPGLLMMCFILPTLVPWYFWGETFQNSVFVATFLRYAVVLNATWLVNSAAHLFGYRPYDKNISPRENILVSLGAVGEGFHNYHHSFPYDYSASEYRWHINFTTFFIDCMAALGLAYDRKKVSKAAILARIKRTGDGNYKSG

| IC50 (SCD1 [1]) | inhibition at 1 µM (SCD1 [2]; [5]) [%] | IC50 (SCD1 [2]; rat liver microsomes) | Compound | IC50 (SCD1 [3]) | % Inh.@ 1 μM (SCD1 [2]; [5]) [%] | body weight change [4] | inhibition at 1 µM (SCD1 [2]) [%] |
| --- | --- | --- | --- | --- | --- | --- | --- |
| 257 nM | 86 | 76 nM | Cc1cn(-c2ccc(N3CCC(N4CCc5ccccc54)CC3)nn2)cn1 [Compound #1, 1-(1-(6-(4-methyl-1H-imidazol-1-yl)pyridazin-3-yl)piperidin-4-yl)indoline] | – | – | – | – |
| 377 nM | 87 | 126 nM | Cn1cc(-c2ccc(N3CCC(c4noc5ccc(F)cc45)CC3)nn2)cn1 [Compound #3, 5-fluoro-3-(1-(6-(1-methyl-1 H-pyrazol-4-yl)pyridazin-3-yl)piperidin-4-yl)benzo[d]isoxazole] | – | – | – | – |
| 139 nM | 89 | 68 nM | Cc1nsc(-c2ccc(N3CCC(c4noc5ccc(F)cc45)CC3)nn2)n1 [Compound #5, 5-fluoro-3-(1-(6-(3-methyl-1,2,4-thiadiazol-5-yl)pyridazin-3-yl)piperidin-4-yl)benzo[d]isoxazole] | – | – | – | – |
| 62 nM and 102 nM | 79 | 34 nM | Cc1nsc(-c2ccc(N3CCC(n4ccc5ccccc54)CC3)nn2)n1 [Compound #6, 5-(6-(4-(1H-indol-1-yl)piperidin-1-yl)pyridazin-3-yl)-3-methyl-1,2,4-thiadiazole] | – | – | – | – |
| 24 nM | 95 | 14 nM | Cc1nsc(-c2ccc(N3CCC(N4CCc5ccccc54)CC3)nn2)n1 [Compound #7, 5-(6-(4-(indolin-1-yl)piperidin-1-yl)pyridazin-3-yl)-3-methyl-1,2,4-thiadiazole] | – | – | – | – |
| 359 nM | 81 | 422 nM | Cn1cc(-c2ccc(N3CCC(n4ccc5ccccc54)CC3)nn2)cn1 [Compound #9, 1-(1-(6-(1-methyl-1H-pyrazol-4-yl)pyridazin-3-yl)piperidin-4-yl)-1H-indole] | – | – | – | – |
| 383 nM | 84 | 394 nM | Cn1cc(-c2ccc(N3CCC(N4CCc5ccccc54)CC3)nn2)cn1 [Compound #10, 1-(1-(6-(1-methyl-1H-pyrazol-4-yl)pyridazin-3-yl)piperidin-4-yl)indoline] | – | – | – | – |
| 362 nM | 95 | 11 nM | Cc1nsc(-c2ccc(N3CCC(N4CCc5ccc(F)cc54)CC3)nn2)n1 [Compound #12, 5-(6-(4-(6-fluoroindolin-1-yl)piperidin-1-yl)pyridazin-3-yl)-3-methyl-1,2,4-thiadiazole] | – | 97 | – | – |
| – | – | – | Cn1cc(-c2ccc(N3CCC(n4ncc5ccc(F)cc54)CC3)nn2)cn1 [Compound #47, 6-fluoro-1-(1-(6-(1-methyl-1H-pyrazol-4-yl)pyridazin-3-yl)piperidin-4-yl)-1H-indazole] | 69 nM and 33 nM | – | −3.3 ± 0.5 * | – |
| 3060 nM | 100 | 59 nM | NNC(=O)c1ccc(N2CCC(c3noc4ccc(F)cc34)CC2)nn1 [Compound I1, 6-(4-(5-fluorobenzo[d]isoxazol-3-yl)piperidin-1-yl)pyridazine-3-carbohydrazide] | > 3000 nM | – | – | – |
| 577 nM | 86 | 165 nM | Fc1ccc2onc(C3CCN(c4ccc(-c5cccnc5)nn4)CC3)c2c1 [compound 8, 5-fluoro-3-(1-(6-(pyridin-3-yl)pyridazin-3-yl)piperidin-4-yl)benzo[d]isoxazote] | – | – | – | – |
| 157 nM | 85 | 156 nM | Fc1ccc2onc(C3CCN(c4ccc(-n5ccnc5)nn4)CC3)c2c1 [compound 84, 3-(1-(6-(1H-imidazol-1-yl)pyridazin-3-yl)piperidin-4-yl)-5-fluorobenzo[d]isoxazole] | – | – | – | – |
| 148 nM | 97 | 65 nM | Cc1cn(-c2ccc(N3CCC(c4noc5ccc(F)cc45)CC3)nn2)cn1 [compound 85, 5-fluoro-3-(1-(6-(4-methyl-1H-imidazol-1-yl)pyridazin-3-yl)piperidin-4-yl)benzo[d]isoxazole] | – | – | – | – |
| 116 nM | 84 | 86 nM | Cc1cn(-c2ccc(N3CCC(n4ccc5ccccc54)CC3)nn2)cn1 [compound 88, 1-(1-(6-(4-methyl-1H-imidazol-1-yl)pyridazin-3-yl)piperidin-4-yl)-1H-indole] | – | – | – | – |
| 691 nM | 88 | 257 nM | Cc1cn(-c2ccc(N3CCC(c4noc5cc(F)ccc45)CC3)nn2)cn1 [compound 89, 6-fluoro-3-(1-(6-(4-methyl-1H-imidazol-1-yl)pyridazin-3-yl)piperidin-4-yl)benzo[d]isoxazole] | – | – | – | – |
| 63 nM | 79 | 126 nM | Cc1ccn(-c2ccc(N3CCC(c4noc5ccc(F)cc45)CC3)nn2)n1 [compound 92, 5-fluoro-3-(1-(6-(3-methyl-1H-pyrazol-1-yl)pyridazin-3-yl)piperidin-4-yl)benzo[d]isoxazole] | – | – | – | – |
| – | 88 | 60 nM | OCCc1cnn(-c2ccc(N3CCC(c4noc5ccc(F)cc45)CC3)nn2)c1 [compound 98, 2-(1-(6-(4-(5-fluorobenzo[d]isoxazol-3-yl)piperidin-1-yl)pyridazin-3-yl)-1H-pyrazol-4-yl)ethanol] | 12 nM | – | – | – |

| Compound | IC50 (SCD1 [1]) | inhibition at 1 µM (SCD1 [2]; [5]) [%] | IC50 (SCD1 [2]; rat liver microsomes) | IC50 (SCD1 [3]) | % Inh.@ 1 μM (SCD1 [2]; [5]) [%] | body weight change [4] | inhibition at 1 µM (SCD1 [2]) [%] |
| --- | --- | --- | --- | --- | --- | --- | --- |
| Cc1cn(-c2ccc(N3CCC(N4CCc5ccc(F)cc54)CC3)nn2)cn1 [Compound #4, 6-fluoro-1-(1-(6-(4-methyl-1H-imidazol-1-yl)pyridazin-3-yl)piperidin-4-yl)indoline] | 68 nM | 95 | – | 9 nM | 93 | – | – |
| OCc1cnn(-c2ccc(N3CCC(N4CCc5ccc(F)cc54)CC3)nn2)c1 [Compound #22] | – | – | 22 nM and 11 nM | 7 nM and 5 nM | – | 1.2 ± 0.3 * | 98 |
| OCc1ccc(-c2ccc(N3CCC(N4CCc5ccc(F)cc54)CC3)nn2)cn1 [Compound #39] | – | 99 | 9 nM | 0.5 nM | – | −2.2 ± 0.5 * | – |
| OCCn1cc(-c2ccc(N3CCC(N4CCc5ccc(F)cc54)CC3)nn2)cn1 [Compound #49, 2-(4-(6-(4-(6-fluoroindolin-1-yl)piperidin-1-yl)pyridazin-3-yl)-1H-pyrazol-1-yl)ethanol] | – | 95 | 25 nM and 19 nM | 21 nM and 22 nM | 91 | 0.5 ± 0.1 * | – |
